Data as given in US11066378B2, “Caffeic acid derivatives for anti-angiogenesis” (Taipei Medical University, priority 2015, dated 2021).

Tests used:
HUVECs [1] = experiment: Tube formation analysis; type: cell-based, human; details: 8 h, 5% FBS, 0.5, 1 and 2 μM, dose-dependent, FIG. 4
Description: The experiments were performed as described previously (Pan et al., 2010). The HUVECs (lx 10^4 cells/well) were seeded on Matrigel-coated wells of a 96-well plate and then incubated with various concentrations (0.5, 1, and 2 μM) of K20E for 8 h. After that, the capillary-like tube formation was observed by light microscopy at 40-fold magnification, and the tube lengths of the capillary mesh were measured to evaluate anti-angiogenic effect of K20E. The tube length of the control group (treated with 5% FBS alone) was defined as 100%.

HUVECs [2] = experiment: Matrigel cell invasion assay; type: cell-based, human; details: 0.5 μM, 16 h, FIG. 3B
Description: For evaluating cell migration, the HUVECs (1×10^5 cells/well) suspended within serum-free culture medium were seeded on inner surface of the upper chamber (ThinCerts™ Cell Culture Inserts with 8 μm pore size; #662638; Greiner Bio-One Inc., Monroe, N.C., USA) placed in the lower chamber (wells of a 24-well plate). For examining the cell invasion, the HUVECs were pre-mixed with equal volume of thawed Matrigel and rapidly seeded on the upper chamber. After 2 h for cell attachment, K20E at different concentrations (0.5, 1, and 2 μM) were added in the upper and the lower chambers, while 5% FBS as a chemoattractant was added in the lower chamber to facilitate cell migration or invasion. After 16 h incubation, the culture medium (or Matrigel) was removed clearly from inside the upper chamber, and the migrated or invasion cells attached on the outer surface of the upper chamber were fixed with 10% formaldehyde for 10 min at RT. The fixed cells were subsequently counterstained with hematoxylin. Relative cell number of each groups was counted from five random regions by light microscopy using a 40-fold magnification. The cell number of the control group (treated with 5% FBS alone) was defined as 100%.

HUVECs [3] = experiment: Cell cycle analysis by flow cytometry; type: cell-based, human; details: 24 h, FIG. 2E
Description: The experiments were performed according to our previous report with minor modifications (Pan et al., 2010). Briefly, the HUVECs (5×10^5 cells/well) were seeded on 6-well plated and harvested after 24 h treatment of K20E (0.5, 1, and 2 μM). Harvested cells were fixed with 70% ice-cold ethanol overnight. Cell pellets were centrifuged (1500 rpm, 5 min, 4° C.) and then re-suspended in 500 μL of DNA staining buffer containing 4 μg/mL propidium iodide, 1% Triton X-100, and 0.5 mg/mL of RNase A. After incubation at 37° C. (water bath) for 30 min in the dark, the cell cycle phase distributions were detected and analyzed by using FACSCanto flow cytometer (BD Biosciences, San Jose, Calif., USA) and ModFit LT Program (Verify Software House, Topsham, Me., USA), respectively.

LLC1 lung cancer cells = experiment: Cell viability assay (MTT assay), growth inhibition of LLC1 cells; type: cell-based, mouse; details: normal culture condition
Description: Human umbilical vein endothelial cells (HUVECs; #8000) were purchased from the ScienCell Research Laboratories (San Diego, Calif., USA). The cells were seeded on gelatin-coated culture dishes and grown in the commercial endothelial cell medium (#1001; ScienCell) containing 5% fetal bovine serum (FBS; #0025; ScienCell), 30 μg/mL endothelial cell growth supplements (ECGS; #1052; ScienCell), 100 units/mL penicillin G, and 100 μg/mL streptomycin sulfates (#0503; ScienCell). Cells at passage 3-6 were used for experiments. Mouse Lewis lung carcinoma cell line 1 (LLC1; #60050) was bought from the Food Industry Research and Development Institute (Hsinchu, Taiwan) and cultured in Gibco® Dulbecco's modified Eagle's medium (#12800-017; Invitrogen, Carlsbad, Calif., USA) supplemented with 10% FBS (HyClone, Logan, Utah, USA), 4 mM L-glutamine, 1.5 g/L sodium bicarbonate, 100 units/mL penicillin G, and 100 μg/mL streptomycin. All cells were incubated in a humidified 5% CO2 atmosphere at 37° C. and culture media was changed every 2˜3 days.
The experiments were performed according to our previous study with minor modifications (Pan et al., 2010). […] Absorbance values at 570 nm were determined for each well using 650 nm as the reference wavelength. The absorbance of the control group (treated with 5% or 10% FBS alone) was defined as 100%.

Structure (SMILES): COC(=O)/C=C/c1cc(OC(C)=O)c2c(c1)[C@H](C(=O)OC)[C@@H](c1ccc(OC(C)=O)c(OC(C)=O)c1)O2 [K20E]
- tube formation of the HUVECs on Matrigel (HUVECs [1]): significantly suppressed
- 5% FBS-induced cell invasion of the HUVECs (HUVECs [2]): largely suppressed
- cells in sub-G1 phases (apoptosis) (HUVECs [3]; 0.5 μM): significantly induce cells in sub-G1 phases (apoptosis)
- cell cycle arrest in G2/M phase (HUVECs [3]; 1 μM): arrest cells in G2/M phase
- GI50 (LLC1 lung cancer cells; Mus musculus, LLC1 lung cancer cells, data not shown, read-out: GI50 value on LLC1 (concentration that causes 50% growth inhibition)): ~79.4 µM
- cell viability of the LLC1 lung cancer cells (LLC1 lung cancer cells): significantly inhibit
